Data taken from patent US20100022393A1, “Glyphosate applications in aquaculture” (priority 2008, published 2010).

Tests used:
Nannochloropsis culture = assay: Nannochloropsis growth in F2 media in seawater, optical density at 680 and 750 nm; format: cell-based; details: for effect on Nannochloropsis growth: various concentrations, F2 media in seawater, after approximately six days, optical density 680 and 750 nm; for IC50: 144 h, read-out: concentration that inhibited Nannochloropsis growth by approximately fifty percent (50%)
Procedure: (§1) According to one exemplary method, thirty (30) microliters of a Nannochloropsis culture was introduced into seven (7) milliliters of F2 media in seawater. The mixture was distributed evenly between six well plates. Glyphosate was added at various concentrations. Additional well plates were inoculated with the same Nannochloropis culture, however, the well plates were not treated with glyphosate. After approximately six days, optical density measurements at both 680 and 750 nanometers were taken in triplicate for each of the various glyphosate concentrations.
as §1, with “were inoculated” for “was introduced”, “Ammonium chloride” for “Glyphosate”, “but” for “however, the well plates”, “ammonium chloride.” for “glyphosate.”, “ammonium chloride” for “glyphosate”
as §1, with “were inoculated” for “was introduced”, “Ammonium hydroxide” for “Glyphosate”, “Nannochloropsis” for “Nannochloropis”, “but” for “however, the well plates”, “ammonium hydroxide.” for “glyphosate.”, “ammonium hydroxide” for “glyphosate”
as §1, with “Glufosinate” for “Glyphosate”, “Nannochloropsis” for “Nannochloropis”, “glufosinate.” for “glyphosate.”, “glufosinate” for “glyphosate”

Dunaliella culture = assay: Dunaliella growth in F2 media in seawater, optical density at 680 and 750 nm; format: cell-based; details: for effect on Dunaliella growth: various concentrations, F2 media in seawater, after approximately six days, optical density 680 and 750 nm
Procedure: as §1, with “a Dunaliella” for “a Nannochloropsis”, “culture were inoculated” for “culture was introduced”, “media within” for “media in”, “same Dunaliella” for “same Nannochloropis”, “culture, but” for “culture, however, the well plates”
(§2) According to one exemplary method, thirty (30) microliters of a Dunaliella culture were inoculated into seven (7) milliliters of F2 media in seawater. The mixture was distributed evenly between six well plates. Ammonium chloride was added at various concentrations. Additional well plates were inoculated with the same Dunaliella culture, but were not treated with ammonium chloride. After approximately six days, optical density measurements at both 680 and 750 nanometers were taken in triplicate for each of the various ammonium chloride concentrations.
as §2, with “hydroxide” for “chloride”, “hydroxide.” for “chloride.”

Row | Compound | effect on Nannochloropsis growth (Nannochloropsis culture) | effect on Dunaliella growth (Dunaliella culture) | IC50 (Nannochloropsis culture) [µM] | IC50 (Dunaliella culture; 144 h, read-out: concentration that inhibited Dunaliella growth by approximately fifty percent (50%)) [µM]
1 | Cl.N [ammonium chloride] | did not inhibit Nannochloropsis growth | did not inhibit Dunaliella growth |  | 
2 | N [ammonium hydroxide] | did not inhibit Nannochloropsis growth | did not inhibit Dunaliella growth |  | 
3 | CP(=O)(O)CCC(N)C(=O)O (stereo not shown) [glufosinate] | controlled (inhibited) Nannochloropsis growth |  | ~25 | 
4 | O=C(O)CNCP(=O)(O)O [glyphosate] | controlled (inhibited) Nannochloropsis growth | inhibited Dunaliella growth | ~800 | ~1200
